One assay addresses T1, DLK (Homo sapiens, UniProt Q12852).
T1 construct: 10 nM DLK, catalytic domain, Carna Biosiences; purchased Carna Biosciences ('Carna Biosiences' [sic])
T1 sequence (Q12852 125-366 limits assumed): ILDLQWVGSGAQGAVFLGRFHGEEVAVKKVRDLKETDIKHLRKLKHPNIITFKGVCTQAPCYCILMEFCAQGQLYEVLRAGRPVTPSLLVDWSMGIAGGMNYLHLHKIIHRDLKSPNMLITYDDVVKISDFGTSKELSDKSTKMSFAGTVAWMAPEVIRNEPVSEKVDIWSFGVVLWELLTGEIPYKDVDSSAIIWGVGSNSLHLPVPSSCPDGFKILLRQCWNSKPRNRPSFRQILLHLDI
Put plainly: DLK biochemical assay (TR-FRET, MKK7 phosphorylation). The conditions noted are these: DLK catalytic domain, MKK7 substrate, 60 μM ATP. Summed up: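 Human DLK activity measured as phosphorylation of His-tagged MKK7 at T275/S277, detected by TR-FRET between Eu-anti-phospho-MKK7 donor (excitation 340 nm) and XL665-anti-His acceptor (665 nm). Signal taken as the XL665/Eu ratio. Detection buffer: 25 mM Tris/HCl pH 7.5, 100 mM EDTA, 100 mM NaCl, 200 mM KF, 0.01% Tween 20.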
(In general: Time-resolved FRET reads energy transfer from a long-lived donor to a nearby acceptor.)

The next assay has as its target T2, LZK (Homo sapiens, UniProt O43283).
T2 construct: 10 nM LZK, catalytic domain, Carna Biosiences in assay buffer; purchased Carna Biosciences ('Carna Biosiences' [sic])
T2 sequence (O43283 168-409 limits assumed): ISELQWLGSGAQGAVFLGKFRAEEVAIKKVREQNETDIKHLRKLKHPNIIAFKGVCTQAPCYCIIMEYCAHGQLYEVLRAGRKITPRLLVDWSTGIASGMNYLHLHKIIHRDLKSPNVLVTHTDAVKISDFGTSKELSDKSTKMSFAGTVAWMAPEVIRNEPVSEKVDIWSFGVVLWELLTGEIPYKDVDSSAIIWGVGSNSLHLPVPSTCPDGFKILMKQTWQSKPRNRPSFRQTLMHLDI
Put plainly: LZK biochemical assay (TR-FRET, MKK7 phosphorylation). As to conditions: LZK catalytic domain, MKK7 substrate, 15 μM ATP.

The values that follow come from patent publication US20230086702A1, “SUBSTITUTED 2-AMINO-PYRAZOLYL-[1,2,4]TRIAZOLO[1,5A]PYRIDINE DERIVATIVES AND USE THEREOF” (The Johns Hopkins University, priority 2019, published 2023).

Molecules are shown by their SMILES.

What is called IC50 is the concentration that inhibits the measured activity by half. A lower IC50 goes with inhibition by little substance. `CCC(c1ccc(Cl)s1)n1cc(-c2cc(C(=O)N[C@@H](C)CC)c3nc(N)nn3c2)cn1` (single isomer, unassigned) [Example I-131]: the IC50 was 1.5 nM on DLK and 33 nM against LZK.

Turning to `CC[C@@H](c1ccc(C(F)(F)F)nc1)n1cc(-c2cc(C(=O)NC(C)(C)CO)c3nc(N)nn3c2)cn1` (single isomer, unassigned) [Example I-164, 2-Amino-N-(1-hydroxy-2-methylpropan-2-yl)-6-(1-{1-[6-(trifluoromethyl)pyridin-3-yl]propyl}-1H-pyrazol-4-yl)[1,2,4]triazolo[1,5-a]pyridine-8-carboxamide], the IC50 came to 6.3 nM against DLK and 52 nM against LZK.

As to `CCC(c1ccc(N2CCOCC2)cc1)n1cc(-c2cc(C(=O)N[C@@H](C)CC)c3nc(N)nn3c2)cn1` (single isomer, unassigned) [Example I-49], the values for the IC50 at DLK and against LZK were 1.5 nM and 17 nM, respectively.

Regarding `CC[C@H](C)NC(=O)c1cc(-c2cnn(C(c3c(F)cncc3F)C(C)C)c2)cc2nc(N)nn12` (single isomer, unassigned) [Example I-124], the values for the IC50 at DLK and on LZK were 60 nM and 270 nM, respectively.

Take `CC[C@H](C)NC(=O)c1cc(-c2cnn(C(c3ccc(OCC(F)(F)F)nc3)C(C)C)c2)cn2nc(N)nc12` (single isomer, unassigned) [Example I-89]: the values for the IC50 against DLK and against LZK were 230 nM and 2000 nM, respectively.

As for `CC[C@H](C)NC(=O)c1cc(-c2cnn(C3CCN(Cc4ccccc4)CC3)c2)cn2nc(N)nc12` (single isomer, unassigned) [Example I-10], the IC50 came out at 24 nM against DLK and 9 nM against LZK.

In the case of `CC[C@H](C)NC(=O)c1cc(-c2cnn(C(CC#N)C(F)(F)F)c2)cc2nc(N)nn12` (stereo partly shown) [Example I-2], the IC50 was 36 nM against DLK and 74 nM against LZK.

Take `CC[C@H](C)NC(=O)c1cc(-c2cnn(C(c3cncc(Cl)c3)C(C)C)c2)cn2nc(N)nc12` (mixture of isomers) [Example I-61, 2-Amino-N-[(2S)-butan-2-yl]-6-{1-[1-(5-chloropyridin-3-yl)-2-methylpropyl]-1H-pyrazol-4-yl}[1,2,4]triazolo[1,5-a]pyridine-8-carboxamide]: the IC50 was 0.6 nM against DLK and 3.3 nM against LZK.

Turning to `CC[C@H](C)NC(=O)c1cc(-c2cnn([C@H](c3ccc(F)cc3)C(C)C)c2)cn2nc(N)nc12` (single isomer, unassigned) [Example I-45], the IC50 against DLK came to 1.3 nM; on LZK, 32 nM.

Consider `CC[C@H](C)NC(=O)c1cc(-c2cnn([C@H](c3ccc(C(F)F)nc3)C(C)C)c2)cc2nc(N)nn12` (single isomer, unassigned) [Example I-97], for which the results for the IC50 against DLK and at LZK were 0.9 nM and 2.1 nM, respectively.

As to `CC[C@H](C)NC(=O)c1cc(-c2cnn(C(c3ccc(C(F)F)nc3)C3CC3)c2)cc2nc(N)nn12` (mixture of isomers) [Example I-98, 2-Amino-N-[(2S)-butan-2-yl]-7-(1-{cyclopropyl[6-(difluoromethyl)pyridin-3-yl]methyl}-1H-pyrazol-4-yl)[1,2,4]triazolo[1,5-a]pyridine-5-carboxamide], the values for the IC50 on DLK and against LZK were 8.6 nM and 7.3 nM, respectively.

Turning to `CC[C@H](C)NC(=O)c1cc(-c2cnn([C@@H](CC)c3ccc(F)cc3)c2)cc2nc(N)nn12` (single isomer, unassigned) [Example I-54], the IC50 at DLK came out at 1.9 nM; against LZK, 8.5 nM.

For `CC[C@H](C)NC(=O)c1cc(-c2cnn(C(c3ccccc3)C3(C)CC3)c2)cn2nc(N)nc12` (single isomer, unassigned) [Example I-29], the IC50 at DLK is 2.3 nM; against LZK, 170 nM.

Consider `CC[C@H](C)NC(=O)c1cc(-c2cnn(C3CCN(C4COC4)CC3)c2)cn2nc(N)nc12` (single isomer, unassigned) [Example I-8], for which the values for the IC50 against DLK and on LZK were 68 nM and 9.4 nM, respectively.

`Nc1nc2c(C(=O)NC3CNC(=O)C3)cc(-c3cnn(Cc4ccc(F)cc4)c3)cn2n1` (racemic) [Example I-136, 2-Amino-6-[1-(4-fluorobenzyl)-1H-pyrazol-4-yl]-N-(5-oxopyrrolidin-3-yl)[1,2,4]triazolo[1,5-a]pyridine-8-carboxamide]: the IC50 on DLK came out at 23 nM; at LZK, 210 nM.

Turning to `CC[C@@H](c1ccc(OC(F)(F)F)nc1)n1cc(-c2cc(C(=O)N[C@@H](C)CO)c3nc(N)nn3c2)cn1` (single isomer, unassigned) [Example I-158, 2-Amino-N-[(25)-1-hydroxypropan-2-yl]-6-(1-{1-[6-(trifluoromethoxy)pyridin-3-yl]propyl}-1H-pyrazol-4-yl)[1,2,4]triazolo[1,5-a]pyridine-8-carboxamide], the IC50 on DLK stood at 0.6 nM; against LZK, 3.4 nM.

Consider `CC(C)(CO)NC(=O)c1cc(-c2cnn(C(c3ccc(C(F)(F)F)nc3)C3CCOCC3)c2)cn2nc(N)nc12` (single isomer, unassigned) [Example I-167, 2-Amino-N-(1-hydroxy-2-methylpropan-2-yl)-6-(1-{tetrahydro-2H-pyran-4-yl[6-(trifluoromethyl)pyridin-3-yl]methyl}-1H-pyrazol-4-yl)[1,2,4]triazolo[1,5-a]pyridine-8-carboxamide], for which the values for the IC50 at DLK and against LZK were 22 nM and 85 nM, respectively.

`CC[C@@H](c1ccc(OC(F)(F)F)nc1)n1cc(-c2cc(C(=O)NC(C)(C)CO)c3nc(N)nn3c2)cn1` (single isomer, unassigned) [Example I-170, 2-Amino-N-(1-hydroxy-2-methylpropan-2-yl)-6-(1-{1-[6-(trifluoromethoxy)pyridin-3-yl]propyl}-1H-pyrazol-4-yl)[1,2,4]triazolo[1,5-a]pyridine-8-carboxamide]: the values for the IC50 against DLK and on LZK were 5.5 nM and 18 nM, respectively.

Turning to `CC[C@H](c1ccc(C(F)(F)F)nc1)n1cc(-c2cc(C(=O)N[C@@H](C)CC)n3nc(N)nc3c2)cn1` (single isomer, unassigned) [Example I-102], the values for the IC50 at DLK and against LZK were 7 nM and 11 nM, respectively.

Turning to `CC[C@H](C)NC(=O)c1cc(-c2cnn(C(c3ccc(OCC(F)(F)F)nc3)C(C)C)c2)cn2nc(N)nc12` (mixture of isomers) [Example I-88, 2-Amino-N-[(2S)-butan-2-yl]-6-(1-{2-methyl-1-[6-(2,2,2-trifluoroethoxy)pyridin-3-yl]propyl}-1H-pyrazol-4-yl)[1,2,4]triazolo[1,5-a]pyridine-8-carboxamide], the IC50 amounted to 7.5 nM on DLK and 120 nM against LZK.

As to `CC[C@H](C)NC(=O)c1cc(-c2cnn([C@H](c3ccnc(OC)c3)C(C)C)c2)cc2nc(N)nn12` (single isomer, unassigned) [Example I-128], the IC50 against DLK is 0.5 nM; against LZK, 3.3 nM.

For the molecule `CC[C@H](C)NC(=O)c1cc(-c2cnn(C(c3ccc(C(F)(F)F)nc3)C3CCNCC3)c2)cn2nc(N)nc12` (single isomer, unassigned) [Example I-83], the IC50 was determined as 0.3 nM at DLK and 0.7 nM against LZK.

For the molecule `CC[C@H](C)NC(=O)c1cc(-c2cnn(C(CC(F)(F)F)c3ccccc3)c2)cn2nc(N)nc12` (single isomer, unassigned) [Example I-39], the IC50 against DLK stood at 24 nM; at LZK, 230 nM.
